Measured values from patent publication US8410107B2, “N-pyridin-3-yl or N-pyrazin-2-yl carboxamides” (Hoffmann-La Roche Inc., priority 2010, dated 2013).

Legend:
human CB2 receptor = target: T1, human CB2 receptor (Homo sapiens, UniProt P34972); assay: CB2 receptor affinity ([3H]-CP-55,940 displacement, HEK cell membranes); format: binding; settings: displacement of radioligand [3H]-CP-55,940
T1 construct: expressed in transfected cells; host or cells: human embryonic kidney (HEK) cells, Semliki Forest Virus system, membrane preparations
T1 sequence (P34972 whole entry): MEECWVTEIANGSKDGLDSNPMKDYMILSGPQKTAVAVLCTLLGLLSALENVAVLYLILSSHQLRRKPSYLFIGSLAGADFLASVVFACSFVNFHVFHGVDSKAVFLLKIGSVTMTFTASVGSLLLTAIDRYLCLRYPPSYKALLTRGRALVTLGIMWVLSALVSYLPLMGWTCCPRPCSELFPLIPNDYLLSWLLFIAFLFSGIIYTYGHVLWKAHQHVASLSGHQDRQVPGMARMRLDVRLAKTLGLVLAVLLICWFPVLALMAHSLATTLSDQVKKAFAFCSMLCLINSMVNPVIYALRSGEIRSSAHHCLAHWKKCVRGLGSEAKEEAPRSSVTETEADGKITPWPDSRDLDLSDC
Procedure, shortened: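 Membranes from HEK cells transiently expressing human CB2 via Semliki Forest Virus, incubated with [3H]-CP-55,940 ± compound; bound ligand separated by glass-fiber filtration and counted by scintillation. Reported as % inhibition of radioligand binding at 10 μM compound.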

human CB1 receptor = target: T2, human CB1 receptor (Homo sapiens, UniProt P21554); assay: CB1 receptor affinity ([3H]-CP-55,940 displacement, HEK cell membranes); format: binding; settings: displacement of radioligand [3H]-CP-55,940
T2 construct: expressed in transfected cells; host or cells: human embryonic kidney (HEK) cells, Semliki Forest Virus system, membrane preparations
T2 sequence (P21554 whole entry): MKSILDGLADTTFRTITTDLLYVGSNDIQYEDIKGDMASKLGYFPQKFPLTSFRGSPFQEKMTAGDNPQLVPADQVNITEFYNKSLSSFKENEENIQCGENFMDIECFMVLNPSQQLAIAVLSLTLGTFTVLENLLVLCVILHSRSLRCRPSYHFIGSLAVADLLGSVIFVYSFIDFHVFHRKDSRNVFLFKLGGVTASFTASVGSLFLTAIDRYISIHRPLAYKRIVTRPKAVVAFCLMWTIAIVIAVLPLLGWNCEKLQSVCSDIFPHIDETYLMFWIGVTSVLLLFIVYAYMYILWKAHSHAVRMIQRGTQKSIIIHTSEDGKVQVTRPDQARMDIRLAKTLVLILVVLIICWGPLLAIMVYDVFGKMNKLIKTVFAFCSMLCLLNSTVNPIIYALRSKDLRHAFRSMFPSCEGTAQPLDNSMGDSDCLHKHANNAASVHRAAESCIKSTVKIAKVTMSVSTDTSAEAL
Procedure, shortened: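 HEK cell membranes transiently expressing human CB1 (Semliki Forest Virus) incubated with [3H]-CP-55,940 and compound at 10 μM. Bound and free ligand separated by glass-fibre filtration, then scintillation counting. Reported as % inhibition of radioligand binding.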

ABCA1 protein = assay: Detection of upregulation of ABCA1 protein in cells (ApoA-I binding, high content image analysis); format: cell-based; settings: THP-1 macrophage cells; for EC50: ABCA1 protein increasing efficacy; for % increase of ABCA1 at 3 μM: 24 hrs with compound
Procedure, shortened: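 THP-1 cells differentiated with 100 nM PMA for 68 hrs, loaded with 25 μg/ml acetylated LDL for 24 hours, then exposed to compound (0.5% DMSO) for 24 hrs. Surface ABCA1 measured by binding of AlexaFluor 647-labeled human ApoA-I (20 nM, 2 h, 37 °C) with confocal high-content imaging; EC50 from one-site dose-response fit.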

| inhibition at 10 µM (human CB2 receptor) | inhibition at 10 µM (human CB1 receptor) | Compound | EC50 (ABCA1 protein) | % increase of ABCA1 at 3 μM (ABCA1 protein) |
| --- | --- | --- | --- | --- |
| 4% | -4% | Cc1cc(-c2cc(NC(=O)c3cccnn3)cnc2OCC(F)(F)F)ccc1Cl [Example 62, N-(5-(4-chloro-3-methylphenyl)-6-(2,2,2-trifluoroethoxy)pyridin-3-yl)pyridazine-3-carboxamide] | 2390 nM |  |
| -1% | 5% | O=C(Nc1cnc(OCC(F)(F)F)c(-c2ccc(Cl)c(F)c2)c1)c1cccnn1 [Example 63, N-(5-(4-chloro-3-fluorophenyl)-6-(2,2,2-trifluoroethoxy)pyridin-3-yl)pyridazine-3-carboxamide] | 680 nM |  |
| 2% | 9% | O=C(Nc1cnc(OCC(F)(F)F)c(-c2ccc(Cl)cc2F)c1)c1cccnn1 [Example 64, N-(5-(4-chloro-2-fluorophenyl)-6-(2,2,2-trifluoroethoxy)pyridin-3-yl)pyridazine-3-carboxamide] | 1080 nM |  |
| 5% | 19% | CCc1ccc(-c2cc(NC(=O)c3cccnn3)cnc2OCC(F)(F)F)cc1 [Example 65, N-(5-(4-ethylphenyl)-6-(2,2,2-trifluoroethoxy)pyridin-3-yl)pyridazine-3-carboxamide] | 270 nM |  |
| 5% | 30% | O=C(Nc1cnc(OCC(F)(F)F)c(-c2ccc(Cl)cc2)c1)c1ccco1 [Example 66, N-(5-(4-chlorophenyl)-6-(2,2,2-trifluoroethoxy)pyridin-3-yl)furan-2-carboxamide] |  | >45% @ 3 μM |
| 9% | 33% | O=C(Nc1cnc(OCC(F)(F)F)c(-c2ccc(Cl)cc2)c1)c1ccoc1 [Example 67, N-(5-(4-chlorophenyl)-6-(2,2,2-trifluoroethoxy)pyridin-3-yl)furan-3-carboxamide] |  | >45% @ 3 μM |
| 4% | 26% | Cc1ccc(C(=O)Nc2cnc(OCC(F)(F)F)c(-c3ccc(Cl)cc3)c2)o1 [Example 68, N-(5-(4-chlorophenyl)-6-(2,2,2-trifluoroethoxy)pyridin-3-yl)-5-methylfuran-2-carboxamide] |  | >45% @ 3 μM |
| 18% | 35% | COCCOc1ncc(NC(=O)c2ccccc2)cc1-c1ccc(Cl)c(C)c1 [Example 69, N-(5-(4-chloro-3-methylphenyl)-6-(2-methoxyethoxy)pyridin-3-yl)benzamide] |  | >45% @ 3 μM |
| -7% | 25% | CN1CCOc2cc(C(=O)Nc3cnc(OCC(F)(F)F)c(-c4ccc(Cl)cc4)c3)cnc21 [Example 72, N-(5-(4-chlorophenyl)-6-(2,2,2-trifluoroethoxy)pyridin-3-yl)-4-methyl-3,4-dihydro-2H-pyrido[3,2-b][1,4]oxazine-7-carboxamide] | 780 nM |  |
| 22% | 13% | Nc1ccc(-c2cc(NC(=O)c3cncc(I)c3)cnc2OCC(F)(F)F)cc1Cl [Example 73, N-(5-(4-amino-3-chlorophenyl)-6-(2,2,2-trifluoroethoxy)pyridin-3-yl)-5-iodonicotinamide] |  | >45% @ 3 μM |
| -7% | 17% | O=C(Nc1cnc(OCC(F)(F)F)c(-c2ccccc2)c1)c1cccnc1 [Example 74, N-(5-phenyl-6-(2,2,2-trifluoroethoxy)pyridin-3-yl)nicotinamide] |  | >45% @ 3 μM |
| 5% | 31% | O=C(Nc1cnc(OCC(F)(F)F)c(-c2ccc(F)cc2)c1)c1cccnc1 [Example 75, N-(5-(4-fluorophenyl)-6-(2,2,2-trifluoroethoxy)pyridin-3-yl)nicotinamide] |  | >45% @ 3 μM |
| 5% | 1% | O=C(Nc1cnc(OCC(F)(F)F)c(-c2cccc(Cl)c2)c1)c1cccnc1 [Example 76, N-(5-(3-chlorophenyl)-6-(2,2,2-trifluoroethoxy)pyridin-3-yl)nicotinamide] |  | >45% @ 3 μM |
| 16% | 33% | COc1cncc(C(=O)Nc2cnc(OCC(F)(F)F)c(-c3ccc(Cl)cc3)c2)c1 [Example 77, N-(5-(4-chlorophenyl)-6-(2,2,2-trifluoroethoxy)pyridin-3-yl)-5-methoxynicotinamide] | 720 nM |  |
| 14% | 16% | Cc1cc(-c2cc(NC(=O)c3cnc4c(c3)OCCN4C)cnc2OCC(F)(F)F)ccc1Cl [Example 80, N-(5-(4-chloro-3-methylphenyl)-6-(2,2,2-trifluoroethoxy)pyridin-3-yl)-4-methyl-3,4-dihydro-2H-pyrido[3,2-b][1,4]oxazine-7-carboxamide] |  | >45% @ 3 μM |
| 5% | 21% | CN1CCOc2cc(C(=O)Nc3cnc(OCC(F)(F)F)c(-c4ccc(Cl)c(F)c4)c3)cnc21 [Example 81, N-(5-(4-chloro-3-fluorophenyl)-6-(2,2,2-trifluoroethoxy)pyridin-3-yl)-4-methyl-3,4-dihydro-2H-pyrido[3,2-b][1,4]oxazine-7-carboxamide] | 2560 nM |  |
| 3% | 23% | CNC(=O)c1ccc(C(=O)Nc2cnc(OCC(F)(F)F)c(-c3ccc(Cl)cc3)c2)cn1 [Example 84, N5-(5-(4-chlorophenyl)-6-(2,2,2-trifluoroethoxy)pyridin-3-yl)-N2-methylpyridine-2,5-dicarboxamide] |  | >45% @ 3 μM |
| 5% | 38% | O=C(Nc1cnc(OCC(F)(F)F)c(-c2ccc(Cl)cc2)c1)c1cncc(Br)c1 [Example 85, 5-bromo-N-(5-(4-chlorophenyl)-6-(2,2,2-trifluoroethoxy)pyridin-3-yl)nicotinamide] |  | >45% @ 3 μM |
| 5% | 48% | COC(C)C(=O)Nc1cnc(OCC(F)(F)F)c(-c2ccc(Cl)cc2)c1 (stereo not drawn) [Example 86, N-(5-(4-chlorophenyl)-6-(2,2,2-trifluoroethoxy)pyridin-3-yl)-2-methoxy-propanamide] |  | >45% @ 3 μM |
| -15% | 19% | CNC(=O)c1cncc(C(=O)Nc2cnc(OCC(F)(F)F)c(-c3ccc(Cl)cc3)c2)c1 [Example 87, N3-(5-(4-chlorophenyl)-6-(2,2,2-trifluoroethoxy)pyridin-3-yl)-N5-methylpyridine-3,5-dicarboxamide] |  | >45% @ 3 μM |
| 16% | 41% | CO[C@H](C)C(=O)Nc1cnc(OCC(F)(F)F)c(-c2ccc(Cl)cc2)c1 [Example 88, (+)-N-(5-(4-chlorophenyl)-6-(2,2,2-trifluoroethoxy)pyridin-3-yl)-2-methoxypropanamide] |  | >45% @ 3 μM |
| 5% | 35% | CO/N=C(\C)C(=O)Nc1cnc(OCC(F)(F)F)c(-c2ccc(Cl)cc2)c1 [Example 89, (E)-N-(5-(4-chlorophenyl)-6-(2,2,2-trifluoroethoxy)pyridin-3-yl)-2-(methoxyimino)propanamide] | 3310 nM |  |

| Compound | inhibition at 10 µM (human CB2 receptor) | inhibition at 10 µM (human CB1 receptor) | EC50 (ABCA1 protein) | % increase of ABCA1 at 3 μM (ABCA1 protein) |
| --- | --- | --- | --- | --- |
| O=C(Nc1cnc(OC2CCC2)c(-c2ccc(Cl)cc2)c1)c1cnccn1 [Example 78, N-(5-(4-chlorophenyl)-6-cyclobutoxypyridin-3-yl)pyrazine-2-carboxamide] | 26% | 25% |  | >45% @ 3 μM |
| O=C(Nc1cnc(OC2CCC2)c(-c2ccc(Cl)cc2)c1)c1cccnc1 [Example 79, N-(5-(4-chlorophenyl)-6-cyclobutoxypyridin-3-yl)nicotinamide] | 13% | 29% |  | >45% @ 3 μM |
| Cc1ocnc1C(=O)Nc1cnc(OC2CCC2)c(-c2ccc(Cl)cc2)c1 [Example 82, 5-Methyl-oxazole-4-carboxylic acid[5-(4-chloro-phenyl)-6-cyclobutoxy-pyridin-3-yl]-amide] | 37% | 29% |  | >45% @ 3 μM |
| Cc1cncc(C(=O)Nc2cnc(OC3CCC3)c(-c3ccc(Cl)cc3)c2)c1 [Example 83, N-[5-(4-Chloro-phenyl)-6-cyclobutoxy-pyridin-3-yl]-5-methyl-nicotinamide] | -5% | 27% |  | >45% @ 3 μM |
